Where “and” joins values, the source holds several entries; their conditions need not be identical. Equal entries are not always repeated. Where two headings read alike, the source gives them in different places.
What was measured:
[1] = tested on: human patients with single or multiple retinal tears; test: Intravitreal urea 3 days before pneumatic Retinopexy in patients with retinal tears (Example I); assay type: in vivo
Procedure: All patients received pneumatic Retinopexy treatment 3 days after intravitreal injection of 1.5 mg of urea in 50 μl of aqueous solution prepared according to the formulation set forth in Table 11 above. […] Within 3-7 days after urea injection, 11/12 patients had developed PVD, only 1/12 patients had not developed PVD. Within 90 days of the urea injection that one patient also developed PVD.
Within 3 days of treatment 9/12 patients had complete retinal reattachment and macular attachment, and within 7 days all 12 patients had complete retinal reattachment and macular attachment.
(Tornambe, P. E. et. al. Opthalmology, 1989; 96: 772-783).

[2] = tested on: stage 3 idiopathic macular hole patient; test: Intravitreal urea followed by C3F8 gas in a patient with idiopathic macular hole (Example II); assay type: in vivo, human; settings: for visual acuity: baseline 20/400; for size of the macular hole: baseline 450 μm
Procedure: The macular defect was classified as a stage 3 macular hole, and the patient's visual acuity was recorded at 20/400 at a baseline time point prior to urea treatment. […] Seven days after the intravitreal urea injection the patient was administered an intravitreal injection of 0.3 ml of expandable gas (C3F8).
One week after administration of the gas, the size of the macular hole had decreased from 450 μm to a smaller size of 200 μm and the patient's vision had improved from a baseline visual acuity of 20/400 to 20/80. Two weeks post treatment the size of the macular hole had decreased from 450 μm to a smaller size of 90 μm and the patient's vision had improved from a baseline visual Acuity of 20/400 to 20/70. Four weeks post treatment the size of the macular hole had decreased from 450 μm to a smaller size of 60 μm and the patient's vision had improved from a baseline visual acuity of 20/400 to 20/60.

[3] = tested on: human patients with diabetes-related nonclearing vitreous hemorrhage; test: Treatment of vitreous hemorrhage (Example IV); assay type: in vivo
Procedure: The formulations and treatments disclosed herein are also effective to treat vitreous hemorrhage. In this example, seven human patients were treated for diabetes-related nonclearing vitreous hemorrhage. Each patient received a single intravitreal injection of 100 μl of a formulation containing urea. The formulation used in this example contained 6% urea, 0.9% sodium chloride, and sterile water for injection (qs 100%).

[4] = tested on: human patients requiring pars plana vitrectomy; test: Intravitreal urea as adjunct to vitrectomy (Example V); assay type: in vivo
Procedure: In this example, five human patients requiring pars plana vitrectomy for various indications were treated one week prior to vitrectomy with a single intravitreal injection of 100 μl of a urea in aqueous solution. The formulation contained 6% urea, 0.9% sodium chloride, and sterile water for injection (qs 100%). All patients underwent routine vitrectomies 8 to 10 days after the urea injection. The minimum waiting time between the urea injection and the vitrectomy procedure is about 1 day to 3 days.
No vitrectomy cutter was used.

[5] = tested on: patients with nonproliferative diabetic retinopathy; test: Treatment of nonproliferative diabetic retinopathy (Example VI); assay type: in vivo, human
Procedure: Sixty-nine patients with nonproliferative diabetic retinopathy were each administered a single intravitreal injection of 50 μl of a urea formulation containing 3% urea, 0.9% sodium chloride, and sterile water for injection.
The vitreous liquefaction and vitreous collapse in nonproliferative diabetic retinopathy patients would inhibit the growth and proliferation of the blood vessels, and thus inhibit the progression of diabetic retinopathy. All 69 (of the) patients were followed for six months following the procedure.

[6] = tested on: human patients with retinitis pigmentosa; test: Double masked placebo controlled dose escalation study in retinitis pigmentosa (Example VII); assay type: in vivo
Procedure: A double masked placebo controlled, randomized, dose escalation study was done in 32 human patients with retinitis pigmentosa. All patients were treated with a single intravitreal injection of 50 μl of a urea-containing formulation. Three groups of patients received different concentrations of urea. One group received a formulation containing 1.5% urea, 0.9% sodium chloride, and sterile water for injection. A second group received an identical formulation except the formulation contained 3.0% urea. A third group received an identical formulation except the formulation contained 6.0% urea. A placebo group received 50 μl of 0.9% sodium chloride.
Forty-seven percent of the patient reported an increase of at least 3 lines of best corrected visual acuity measured by ETDRS charts, whereas, only 14% of the placebo patients reported an increase of at least 3 lines of best corrected visual acuity measured by ETDRS charts.
There was no dramatic increase in the visual field of the placebo control patients.

[7] = tested on: human patients with optic nerve damage caused by trauma and/or glaucoma; test: Double masked placebo controlled dose escalation study in optic nerve damage (Example VIII); assay type: in vivo
Procedure: In accordance with the present invention, urea, thiourea, guanidine and possibly the other compounds of General Formula I above are effective to treat neuropathies (e.g., disorders or damage to nerves). In this example, 33 non sighted patients with optic nerve damage caused by trauma and/or glaucoma, with visual acuity of light perception or no light perception were administered a urea-containing formulation, as disclosed herein. The study was a double masked placebo controlled, randomized, dose escalation study conducted with 33 human patients with optic nerve damage. Patients were randomized into 5 groups, Group 1 of 5 patients, Group 2 of 4 patients, Group 3 of 8 patients, Group 4 of 8 patients and Group 5 of 8 patients. Each patient received a single intravitreal injection of 50 μl of an aqueous treatment solution, as follows:
In Six patients the vision improved from No light perception to light perception, in 2 patients the vision improved from light perception to count fingers at 12 inches, in 2 patients the vision improved from no light perception to 20/400 and 20/800 vision and in 2 patients the vision improved from light perception to 20/600 and 20/800 vision. No patients in the placebo group reported any improvement in best corrected visual acuity as measured by ETDRS charts.

[8] = tested on: patients with optic nerve damage related to optic nerve tumors; test: Treatment of optic nerve damage related to optic nerve tumors (Example VIII); assay type: in vivo, human
Procedure: In another study, three patients with long standing (6 months or longer) optic nerve damage related to optic nerve tumors were treated with a single intravitreal injection of 100 μl of a 6% urea containing formulation. All three patient treated reported a significant improvement in visual acuity after treatment. The patients' visual acuity improved from an average of Count Fingers at 12 inches to 20/200.

[9] = tested on: vitreous body of patients; test: Injection of urea into the vitreous, slit lamp biomicroscopy in patients; assay type: in vivo, human
From the text: (§1) In addition, disinsertion of the posterior vitreous has been observed in patients by the use of slit lamp biomicroscopy and in rabbits by specialized histological techniques after urea treatment.

[10] = tested on: posterior vitreous of rabbits; test: Injection of urea into the vitreous, specialized histological techniques in rabbits; assay type: in vivo; settings: after urea treatment
From the text: as §1

[11] = 10% water solution; cited from earlier work
[12] = cited from earlier work
[13] = cited from earlier work; remark: listed apart in the source
[14] = one week after administration of the gas

NC(N)=O [urea]
adverse effects of the intravitreal injection, ophthalmoscopic and biomicroscopic examination ([1]; 1.5 mg urea in 50 μl intravitreal, 12 patients): no adverse effects | average improvement of visual acuity per patient ([1]; 6 months after Retinopexy): 4.2 lines and 21 letters | patients with improvement of more than 2 lines of visual acuity (11 letters) ([1]; 6 months post Retinopexy): 64% | occurrence of new retinal tears with associated retinal detachment ([1]; 90 days follow up): none of the patients | time by which the one remaining patient developed PVD ([1]; after urea injection, 1.5 mg in 50 μl): ≤ 90 days | patients with improvement of more than 2 lines of visual acuity (11 letters) ([1]; urea 3 days prior to pneumatic Retinopexy, time point not given): 64% | patients who had developed PVD ([1]; within 3-7 days after urea injection, 1.5 mg in 50 μl): 11/12 | patients with complete retinal reattachment and macular attachment ([1]; within 3 days of treatment): 9/12 | patients with complete retinal reattachment and macular attachment ([1]; within 7 days): 12 patients | adverse effects of the intravitreal injection, ophthalmoscopic and biomicroscopic examination ([2]; 1.5 mg urea in 50 μl): no adverse effects | visual acuity ([2]; four weeks post treatment): 20/60 | size of the macular hole ([2]; four weeks post treatment): 60 μm | visual acuity [2, 14]: 20/80 | size of the macular hole [2, 14]: 200 μm | time to complete Posterior Vitreous Detachment (PVD) ([2]; single intravitreal 1.5 mg urea in 50 μl, Table III formulation): ≤ 7 days | visual acuity ([2]; two weeks post treatment): 20/70 | size of the macular hole ([2]; two weeks post treatment): 90 μm | rate of hemorrhagic blood clearance compared with normal clearance rates in clinical practice ([3]; 100 μl of 6% urea): significantly accelerated | patients with clearance of vitreous hemorrhage sufficient to treat the retina with photocoagulation ([3]; single intravitreal 100 μl of 6% urea, 0.9% sodium chloride, seven patients): All seven | decrease in surgical time relative to patients who did not receive urea ([4]; 100 μl of 6% urea one week prior to vitrectomy): 70% | vitreous liquefaction and collapse ([4]; by one week after single intravitreal 100 μl of 6% urea, five patients): complete vitreous liquefaction and collapse | time to complete vitreous liquefaction and collapse after administration ([5]; 50 μl of 3% urea): 2-4 weeks | patients with complete vitreous liquefaction and collapse ([5]; single intravitreal 50 μl of 3% urea, 0.9% sodium chloride): 69 patients | patients with increase of at least 3 lines of best corrected visual acuity measured by ETDRS charts ([6]; single intravitreal 50 μl of 1.5%, 3.0% or 6.0% urea, groups pooled): Forty-seven | average improvement in the patient's visual field ([6]; urea-treated patients): 10 degrees | patients whose vision improved from No light perception to light perception ([7]; 50 μl of 0.2-6.0% urea): Six | patients whose vision improved from light perception to 20/600 and 20/800 vision ([7]; 50 μl of 0.2-6.0% urea): 2 patients | patients whose vision improved from light perception to count fingers at 12 inches ([7]; 50 μl of 0.2-6.0% urea): 2 patients | patients whose vision improved from no light perception to 20/400 and 20/800 vision ([7]; 50 μl of 0.2-6.0% urea): 2 patients | patients with increase of best corrected visual acuity measured by ETDRS charts ([7]; single intravitreal 50 μl of 0.2%, 1.5%, 3.0% or 6.0% urea): Forty-three | average visual acuity after treatment ([8]; from an average of Count Fingers at 12 inches, 100 μl of 6% urea): 20/200 | patients reporting a significant improvement in visual acuity after treatment ([8]; single intravitreal 100 μl of 6% urea, three patients): All three | liquefaction of the vitreous body and breakdown of hyaluronic acid of the vitreous ([9]; after injection of urea into the vitreous): within several days | disinsertion of the posterior vitreous ([9]; patients, slit lamp biomicroscopy, after urea treatment): observed | disinsertion of the posterior vitreous [10]: observed | pH [11]: 7.2 | solubility ([12]; in chloroform or ether): practically insoluble | solubility ([12]; in water, ethanol, methanol and glycerol): very soluble | stability ([13]; aqueous urea solutions, develop an odor of ammonia): gradually degrade | stability ([13]; stored under dry conditions at room temperature): stable
